Assay results published in patent publication US8853230B2, “Inhibitors of JAK” (Portola Pharmaceuticals, Inc., priority 2009, dated 2014).

How the values were obtained:
Syk = Syk (Homo sapiens, UniProt P43405); experiment: Syk IC50 (Table 1; method not given); assay type: biochemical
TYK2 = biological target: T1, TYK2 (Homo sapiens, UniProt P29597); experiment: Z'-LYTE kinase assay, TYK2 tyrosine phosphorylation activity; assay type: biochemical
T1 construct: 5 μl of catalytic domain recombinant Kinase enzyme+Tyr peptide substrate (Invitrogen, Calif.); purchased Invitrogen
T1 sequence (P29597 897-1176 limits assumed): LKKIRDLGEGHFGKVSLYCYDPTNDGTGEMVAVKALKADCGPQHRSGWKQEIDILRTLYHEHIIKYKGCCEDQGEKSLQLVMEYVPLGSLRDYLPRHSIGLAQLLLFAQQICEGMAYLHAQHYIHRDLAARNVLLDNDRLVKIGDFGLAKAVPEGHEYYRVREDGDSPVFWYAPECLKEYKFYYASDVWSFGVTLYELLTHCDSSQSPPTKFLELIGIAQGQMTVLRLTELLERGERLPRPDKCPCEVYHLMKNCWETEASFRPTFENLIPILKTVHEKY
Method in brief: (§1)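 Inhibition is expressed as substrate phosphorylation relative to inhibitor-free wells, fitted with a 4-parameter logistic model for IC50. Reactions contain catalytic-domain kinase, Tyr6 peptide and ATP, run 1 h at room temperature. Development protease is added for 1 h before fluorescence readout.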

[1] = tested on: IL4-induced phospho STAT6 formation in Ramos B lymphocytes; experiment: Inhibition of IL4-induced phospho STAT6 formation in Ramos B lymphocytes (flow cytometry); assay type: cell-based, human; conditions: Homo sapiens; for inhibition at 0.2 µM: 200 nM compound, read-out: % Inhibition of IL-4 Induced STAT6 Phosphorylation 200 nM; for inhibition at 1 µM: 1 μM compound, read-out: % Inhibition of IL-4 Induced STAT6 Phosphorylation 1 μM
Excerpt: Similar types of assays can be used to assess JAK inhibitory activity and to determine the degree of selectivity of the particular compound as compared to syk. One means of assaying for such inhibition is detection of the effect of the compounds of the present invention on the upregulation of downstream gene products. In the Ramos/IL4 assay, B-cells are stimulated with the cytokine Interleukin-4 (IL-4) leading to the activation of the JAK/Stat pathway through phosphorylation of the JAK family kinases, JAK1 and JAK3, which in turn phosphorylate and activate the transcription factor Stat-6. […] To study the effect of inhibitors (e.g., the 2,4-substituted pyrimindinediamine compounds described herein) on the JAK1 and JAK3, human Ramos B-cells are stimulated with human IL-4. 10′ post-stimulation, cells are subjected to intracellular flow cytometry to measure the extent of STAT-6 phosphorylation. 20 to 24 hours post-stimulation, cells are stained for upregulation of CD23 and analyzed using flow cytometry.
Inhibition of IL4-induced phospho STAT6 formation was measured by pre-incubating 0.5 million Ramos B lymphocytes (ATCC) with 5 μl compound or DMSO vehicle for 1 hour at 37° C./5% CO2. Cells were activated by addition of 1 ng/ml [f]IL4 (R & D Research Systems) for 10 min at 37° C./5% CO2 and then fixed by addition of 1.6% [f]PFA (Electron Microscopy Services). Following a PBS wash step and permaeabilization with 100% methanol, cells were incubated with ALEXA-conjugated anti-phosphoSTAT6 (Y641) antibody (BD 612600). The extent of cell associated-fluorescence was determined by flow cytomentry and data expressed as mean fluorescent intensity. The extent of inhibition of the IL4-induced signal was then calculated.

JAK3 = biological target: T2, JAK3 (Homo sapiens, UniProt P52333); experiment: Z'-LYTE kinase assay, JAK3 tyrosine phosphorylation activity; assay type: biochemical
T2 construct: 5 μl of catalytic domain recombinant Kinase enzyme+Tyr peptide substrate (Invitrogen, Calif.); purchased Invitrogen
T2 sequence (P52333 822-1111 limits assumed): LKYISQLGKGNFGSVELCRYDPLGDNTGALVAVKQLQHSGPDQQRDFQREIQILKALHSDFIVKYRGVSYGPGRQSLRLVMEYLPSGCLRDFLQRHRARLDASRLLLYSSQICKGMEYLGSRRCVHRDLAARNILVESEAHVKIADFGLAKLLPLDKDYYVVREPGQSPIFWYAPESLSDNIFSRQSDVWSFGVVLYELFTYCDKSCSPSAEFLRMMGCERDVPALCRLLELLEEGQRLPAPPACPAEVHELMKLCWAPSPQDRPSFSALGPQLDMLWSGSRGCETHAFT
Method in brief: as §1

JAK1 = biological target: T3, JAK1 (Homo sapiens, UniProt P23458); experiment: Z'-LYTE kinase assay, JAK1 tyrosine phosphorylation activity; assay type: biochemical; conditions: read-out: JAK 1 IC50
T3 construct: 5 μl of catalytic domain recombinant Kinase enzyme+Tyr peptide substrate (Invitrogen, Calif.); purchased Invitrogen
T3 sequence (P23458 875-1153 limits assumed): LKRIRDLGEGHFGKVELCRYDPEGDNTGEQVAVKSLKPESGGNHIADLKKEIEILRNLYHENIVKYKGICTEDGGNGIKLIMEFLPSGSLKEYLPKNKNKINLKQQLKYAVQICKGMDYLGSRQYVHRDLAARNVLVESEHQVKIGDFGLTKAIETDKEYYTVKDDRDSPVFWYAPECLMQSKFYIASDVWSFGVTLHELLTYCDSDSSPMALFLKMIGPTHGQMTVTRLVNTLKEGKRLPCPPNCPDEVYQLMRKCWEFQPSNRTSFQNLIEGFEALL
Method in brief: as §1

JAK2 = biological target: T4, JAK2 (Homo sapiens, UniProt O60674); experiment: Z'-LYTE kinase assay, JAK2 tyrosine phosphorylation activity; assay type: biochemical
T4 construct: 5 μl of catalytic domain recombinant Kinase enzyme+Tyr peptide substrate (Invitrogen, Calif.); purchased Invitrogen
T4 sequence (O60674 849-1124 limits assumed): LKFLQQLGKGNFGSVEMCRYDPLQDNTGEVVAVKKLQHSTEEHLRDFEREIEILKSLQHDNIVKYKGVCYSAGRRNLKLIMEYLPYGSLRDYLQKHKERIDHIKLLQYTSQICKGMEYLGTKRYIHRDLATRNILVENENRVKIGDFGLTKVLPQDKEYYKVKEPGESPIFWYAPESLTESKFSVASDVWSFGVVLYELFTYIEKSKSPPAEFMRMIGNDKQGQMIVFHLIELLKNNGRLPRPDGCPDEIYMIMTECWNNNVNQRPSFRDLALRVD
Method in brief: as §1

SMILES	IC50 (Syk)	IC50 (TYK2)	IC50 (JAK3)	IC50 (JAK1)	IC50 (JAK2)	inhibition at 0.2 µM [1]	inhibition at 1 µM [1]
CC(=O)Nc1cccc(Nc2ncc(C(N)=O)c(NC(C)C)n2)c1 [Example 11, 2-(3-acetamidophenylamino)-4-(isopropylamino)pyrimidine-5-carboxamide]	100 to 1000 nM	–	–	–	–	–	–
COCCCNc1nc(Nc2cccc(NC(C)=O)c2)ncc1C(N)=O [Example 16, 2-(3-acetamidophenylamino)-4-(3-methoxypropylamino)pyrimidine-5-carboxamide]	100 to 1000 nM	–	–	–	–	–	–
CNc1nc(Nc2cccc(NC(C)=O)c2)ncc1C(N)=O [Example 8, 2-(3-acetamidophenylamino)-4-(methylamino)pyrimidine-5-carboxamide]	100 to 1000 nM	–	–	–	–	–	–
C#CCNc1nc(Nc2cccc(NC(C)=O)c2)ncc1C(N)=O [Example 10, 2-(3-acetamidophenylamino)-4-(prop-2-ynylamino)pyrimidine-5-carboxamide]	100 to 1000 nM	–	–	–	–	–	–
CCNc1nc(Nc2cccc(NC(C)=O)c2)ncc1C(N)=O [Example 9, 2-(3-acetamidophenylamino)-4-(ethylamino)pyrimidine-5-carboxamide]	100 to 1000 nM	–	–	–	–	–	–
C[C@@H](Nc1nc(Nc2ccc(Cl)c(NC(=O)C3CC3)c2)ncc1C(N)=O)c1ccccc1 [Example 110, (R)-2-(4-chloro-3-(cyclopropanecarboxamido)phenylamino)-4-(1-phenylethylamino)pyrimidine-5-carboxamide]	–	100 to 1000 nM	10 to 100 nM	100 to 1000 nM	100 to 1000 nM	48.3%	97.7%
CC(=O)Nc1cc(Nc2ncc(C(N)=O)c(N[C@H](C)c3ccccc3)n2)ccc1Cl [Example 108, (R)-2-(3-acetamido-4-chlorophenylamino)-4-(1-phenylethylamino)pyrimidine-5-carboxamide]	–	10 to 100 nM	1 to 10 nM	100 to 1000 nM	10 to 100 nM	21.3%	70%
CC(=O)Nc1cc(Nc2ncc(C(N)=O)c(NCc3ccccc3)n2)ccc1F [Example 156, 2-(3-acetamido-4-fluorophenylamino)-4-(benzylamino)pyrimidine-5-carboxamide]	–	1 to 10 nM	1 to 10 nM	10 to 100 nM	10 to 100 nM	28%	71.3%
CNC(=O)Nc1cc(Nc2ncc(C(N)=O)c(N[C@H](C)c3ccccc3)n2)ccc1Cl [Example 132, (R)-2-(4-chloro-3-(3-methylureido)phenylamino)-4-(1-phenylethylamino)pyrimidine-5-carboxamide]	–	100 to 1000 nM	10 to 100 nM	100 to 1000 nM	100 to 1000 nM	7.5%	53.7%
CC(=O)Nc1cc(Nc2ncc(C(N)=O)c(NCc3ccccc3)n2)ccc1C [Example 155, 2-(3-acetamido-4-methylphenylamino)-4-(benzylamino)pyrimidine-5-carboxamide]	–	1 to 10 nM	1 to 10 nM	10 to 100 nM	10 to 100 nM	71.7%	88%
COCC(=O)Nc1cc(Nc2ncc(C(N)=O)c(NCc3ccccc3)n2)ccc1Cl [Example 106, 4-(benzylamino)-2-(4-chloro-3-(2-methoxyacetamido)phenylamino)pyrimidine-5-carboxamide]	–	10 to 100 nM	10 to 100 nM	100 to 1000 nM	100 to 1000 nM	16.8%	27.8%

Continued, in another order:

IC50 (Syk)	IC50 (TYK2)	IC50 (JAK3)	IC50 (JAK1)	IC50 (JAK2)	SMILES	inhibition at 0.2 µM [1]	inhibition at 1 µM [1]
–	10 to 100 nM	1 to 10 nM	10 to 100 nM	10 to 100 nM	NC(=O)c1cnc(Nc2cccc(NC(=O)[C@@H]3CCCO3)c2)nc1NCc1cccc(F)c1 [Example 208, (S)-4-(3-fluorobenzylamino)-2-(3-(tetrahydrofuran-2-carboxamido)phenylamino)pyrimidine-5-carboxamide]	22.7%	67.7%
–	10 to 100 nM	1 to 10 nM	10 to 100 nM	10 to 100 nM	CC(=O)Nc1cccc(Nc2ncc(C(N)=O)c(NCC3CCNCC3)n2)c1 [Example 190, 2-(3-acetamidophenylamino)-4-(piperidin-4-ylmethylamino)pyrimidine-5-carboxamide]	17%	39.3%
–	1 to 10 nM	1 to 10 nM	10 to 100 nM	10 to 100 nM	COc1ccc(Nc2ncc(C(N)=O)c(NCc3ccccc3)n2)cc1NC(=O)N1CCCC1 [Example 163, 4-(benzylamino)-2-(4-methoxy-3-(pyrrolidine-1-carboxamido)phenylamino)pyrimidine-5-carboxamide]	20.7%	61%
–	10 to 100 nM	1 to 10 nM	> 1000 nM	> 1000 nM	NC(=O)c1cnc(Nc2ccc(Cl)c(NC(=O)N3CCCC3)c2)nc1NCc1ccccc1F [Example 170, 2-(4-chloro-3-(pyrrolidine-1-carboxamido)phenylamino)-4-(2-fluorobenzylamino)pyrimidine-5-carboxamide]	5.7%	53.7%
–	10 to 100 nM	1 to 10 nM	100 to 1000 nM	10 to 100 nM	C[C@@H](Nc1nc(Nc2ccc(Cl)c(NC(=O)N(C)C)c2)ncc1C(N)=O)c1ccccc1 [Example 195, (R)-2-(4-chloro-3-(3,3-dimethylureido)phenylamino)-4-(1-phenylethylamino)pyrimidine-5-carboxamide]	3.3%	27.3%
–	1 to 10 nM	1 to 10 nM	10 to 100 nM	10 to 100 nM	CNC(=O)Nc1cc(Nc2ncc(C(N)=O)c(NCc3ccccc3)n2)ccc1C [Example 157, 4-(benzylamino)-2-(4-methyl-3-(3-methylureido)phenylamino)pyrimidine-5-carboxamide]	23%	31.7%
–	1 to 10 nM	1 to 10 nM	10 to 100 nM	10 to 100 nM	CNC(=O)Nc1cccc(Nc2ncc(C(N)=O)c(NCc3ccccc3F)n2)c1 [Example 181, 4-(2-fluorobenzylamino)-2-(3-(3-methylureido)phenylamino)pyrimidine-5-carboxamide]	23.7%	38.7%
–	10 to 100 nM	1 to 10 nM	10 to 100 nM	10 to 100 nM	NC(=O)c1cnc(Nc2cccc(NC(=O)N3CCCC3)c2)nc1NCc1cccc(F)c1 [Example 179, 4-(3-fluorobenzylamino)-2-(3-(pyrrolidine-1-carboxamido)phenylamino)pyrimidine-5-carboxamide]	11.3%	10.7%
–	1 to 10 nM	1 to 10 nM	10 to 100 nM	10 to 100 nM	NC(=O)c1cnc(Nc2cccc(NC(=O)N3CCOCC3)c2)nc1NCc1ccccc1 [Example 217, N-(3-(4-(benzylamino)-5-carbamoylpyrimidin-2-ylamino)phenyl)morpholine-4-carboxamide]	61.3%	92%
–	1 to 10 nM	1 to 10 nM	10 to 100 nM	10 to 100 nM	CNC(=O)Nc1cc(Nc2ncc(C(N)=O)c(NCc3ccccc3)n2)ccc1OC [Example 164, 4-(benzylamino)-2-(4-methoxy-3-(3-methylureido)phenylamino)pyrimidine-5-carboxamide]	34.7%	68.7%
–	1 to 10 nM	1 to 10 nM	10 to 100 nM	10 to 100 nM	NC(=O)c1cnc(Nc2cccc(NC(=O)N3CCCC3)c2)nc1NCc1ccccc1F [Example 168, 4-(2-fluorobenzylamino)-2-(3-(pyrrolidine-1-carboxamido)phenylamino)pyrimidine-5-carboxamide]	54%	92%
